Source: US6740642B2, “Macrolides with antibacterial activity” (BAsilea Parmaceutica AG, priority 2000, dated 2004)
In brackets after ≈: the same amount, converted by molar mass.

Legend:
[1] = tested on: St. pneumoniae SL199T; test: MIC, standard microdilution; assay type: cell-based, Streptococcus pneumoniae; conditions: Streptococcus pneumoniae, read-out: minimum inhibitory concentration (MIC)
Summary of the method: (§1)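 Antibacterial activity was measured by the standard microdilution technique. The method followed the NCCLS dilution standard for aerobically growing bacteria (M7-A4).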

[2] = tested on: St. pneumoniae 1/1; test: MIC, standard microdilution; assay type: cell-based, Streptococcus pneumoniae; conditions: Streptococcus pneumoniae, read-out: minimum inhibitory concentration (MIC)
Summary of the method: as §1

[3] = tested on: St. pneumoniae 12288; test: MIC, standard microdilution; assay type: cell-based, Streptococcus pneumoniae; conditions: Streptococcus pneumoniae, read-out: minimum inhibitory concentration (MIC)
Summary of the method: as §1

[4] = tested on: St. pneumoniae 1/4; test: MIC, standard microdilution; assay type: cell-based, Streptococcus pneumoniae; conditions: Streptococcus pneumoniae, read-out: minimum inhibitory concentration (MIC)
Summary of the method: as §1

[5] = tested on: S. aureus ATCC29213; test: MIC, standard microdilution; assay type: cell-based, Staphylococcus aureus; conditions: Staphylococcus aureus, read-out: minimum inhibitory concentration (MIC)
Summary of the method: as §1

[6] = tested on: S. aureus 745; test: MIC, standard microdilution; assay type: cell-based, Staphylococcus aureus; conditions: Staphylococcus aureus, read-out: minimum inhibitory concentration (MIC)
Summary of the method: as §1

[7] = tested on: S. aureus 1086; test: MIC, standard microdilution; assay type: cell-based, Staphylococcus aureus; conditions: Staphylococcus aureus, read-out: minimum inhibitory concentration (MIC)
Summary of the method: as §1

[8] = tested on: H. influenzae B 1501; test: MIC, agar dilution, HTM medium; assay type: cell-based, Haemophilus influenzae; conditions: Haemophilus influenzae, B1501, read-out: MIC
Source text: (§2) The biological activities of compounds of the present invention against Haemophilus influenzae have been determined by standard agar dilution method using HTM medium (National Committee for Clinical Laboratory Standards. 1997. Methods for dilution antimicrobial susceptibility tests for bacteria that grow aerobically, 4th edition. Approved standard M7-A4. National Committee for Clinical Laboratory Standards, Wayne, Pa.).

[9] = tested on: H. influenzae 1; test: MIC, agar dilution, HTM medium; assay type: cell-based, Haemophilus influenzae; conditions: Haemophilus influenzae, read-out: MIC
Source text: as §2

[10] = tested on: H. influenzae QK 50; test: MIC, agar dilution, HTM medium; assay type: cell-based, Haemophilus influenzae; conditions: Haemophilus influenzae, QK50, read-out: MIC
Source text: as §2

[11] = tested on: H. influenzae H36 ODL; test: MIC, agar dilution, HTM medium; assay type: cell-based, Haemophilus influenzae; conditions: Haemophilus influenzae, H36ODL, read-out: MIC
Source text: as §2

[12] = tested on: H. influenzae H28 HEL; test: MIC, agar dilution, HTM medium; assay type: cell-based, Haemophilus influenzae; conditions: Haemophilus influenzae, H28HEL, read-out: MIC
Source text: as §2

[13] = tested on: H. influenzae 11; test: MIC, agar dilution, HTM medium; assay type: cell-based, Haemophilus influenzae; conditions: Haemophilus influenzae, read-out: MIC
Source text: as §2

[14] = tested on: H. influenzae 3201; test: MIC, agar dilution, HTM medium; assay type: cell-based, Haemophilus influenzae; conditions: Haemophilus influenzae, read-out: MIC
Source text: as §2

[15] = tested on: H. influenzae Christy; test: MIC, agar dilution, HTM medium; assay type: cell-based, Haemophilus influenzae; conditions: Haemophilus influenzae, read-out: MIC
Source text: as §2

[16] = tested on: H. influenzae H20 HDL; test: MIC, agar dilution, HTM medium; assay type: cell-based, Haemophilus influenzae; conditions: Haemophilus influenzae, H20HDL, read-out: MIC
Source text: as §2

[17] = tested on: H. influenzae 23145; test: MIC, agar dilution, HTM medium; assay type: cell-based, Haemophilus influenzae; conditions: Haemophilus influenzae, read-out: MIC
Source text: as §2

[18] = tested on: H. influenzae 3640; test: MIC, agar dilution, HTM medium; assay type: cell-based, Haemophilus influenzae; conditions: Haemophilus influenzae, read-out: MIC
Source text: as §2

[19] = tested on: H. influenzae QK 12/87; test: MIC, agar dilution, HTM medium; assay type: cell-based, Haemophilus influenzae; conditions: Haemophilus influenzae, QK12/87, read-out: MIC
Source text: as §2

[20] = tested on: H. influenzae ATCC 9334; test: MIC, agar dilution, HTM medium; assay type: cell-based, Haemophilus influenzae; conditions: Haemophilus influenzae, ATCC9334, read-out: MIC
Source text: as §2

[21] = tested on: H. influenzae 4139; test: MIC, agar dilution, HTM medium; assay type: cell-based, Haemophilus influenzae; conditions: Haemophilus influenzae, read-out: MIC
Source text: as §2

[22] = tested on: H. influenzae 2947; test: MIC, agar dilution, HTM medium; assay type: cell-based, Haemophilus influenzae; conditions: Haemophilus influenzae, read-out: MIC
Source text: as §2

[23] = tested on: H. influenzae 12214; test: MIC, agar dilution, HTM medium; assay type: cell-based, Haemophilus influenzae; conditions: Haemophilus influenzae, read-out: MIC
Source text: as §2

[24] = tested on: H. influenzae ATCC 49247; test: MIC, agar dilution, HTM medium; assay type: cell-based, Haemophilus influenzae; conditions: Haemophilus influenzae, ATCC49247, read-out: MIC
Source text: as §2

[25] = tested on: H. influenzae 23369; test: MIC, agar dilution, HTM medium; assay type: cell-based, Haemophilus influenzae; conditions: Haemophilus influenzae, read-out: MIC
Source text: as §2

[26] = tested on: H. influenzae H13 LAH; test: MIC, agar dilution, HTM medium; assay type: cell-based, Haemophilus influenzae; conditions: Haemophilus influenzae, H13LAH, read-out: MIC
Source text: as §2

[27] = tested on: H. influenzae Rd KW20; test: MIC, agar dilution, HTM medium; assay type: cell-based, Haemophilus influenzae; conditions: Haemophilus influenzae, RDKW20, read-out: MIC
Source text: as §2

[28] = tested on: H. influenzae 3457; test: MIC, agar dilution, HTM medium; assay type: cell-based, Haemophilus influenzae; conditions: Haemophilus influenzae, read-out: MIC
Source text: as §2

[29] = tested on: P. aeruginosa ATCC27853 (+Ery. 32 μg/ml); test: MIC, standard microdilution; assay type: cell-based
Summary of the method: as §1

[30] = tested on: E. coli ATCC25922; test: MIC, standard microdilution; assay type: cell-based; conditions: Escherichia coli, read-out: minimum inhibitory concentration (MIC)
Summary of the method: as §1

MIC [1] [µg/mL] | MIC [2] [µg/mL] | MIC [3] [µg/mL] | MIC [4] [µg/mL] | MIC [5] [µg/mL] | MIC [6] [µg/mL] | MIC [7] [µg/mL] | MIC [8] [µg/mL] | MIC [9] [µg/mL] | MIC [10] [µg/mL] | MIC [11] [µg/mL] | MIC [12] [µg/mL] | MIC [13] [µg/mL] | MIC [14] [µg/mL] | MIC [15] [µg/mL] | MIC [16] [µg/mL] | MIC [17] [µg/mL] | MIC [18] [µg/mL] | MIC [19] [µg/mL] | MIC [20] [µg/mL] | Compound | further results
> 32 | ≤ 0.12 | > 32 | 32 (≈ 43.6 µM) | 0.5 (≈ 0.681 µM) | > 64 | > 32 | 4 (≈ 5.45 µM) | 4 (≈ 5.45 µM) | 4 (≈ 5.45 µM) | 4 (≈ 5.45 µM) | 2 (≈ 2.73 µM) | 4 (≈ 5.45 µM) | 4 (≈ 5.45 µM) | 4 (≈ 5.45 µM) | 2 (≈ 2.73 µM) | 4 (≈ 5.45 µM) | 2 (≈ 2.73 µM) | 2 (≈ 2.73 µM) | 4 (≈ 5.45 µM) | CC[C@H]1OC(=O)[C@H](C)[C@@H](O[C@H]2C[C@@](C)(OC)[C@@H](O)[C@H](C)O2)[C@H](C)[C@@H](O[C@@H]2O[C@H](C)C[C@H](N(C)C)[C@H]2O)[C@](C)(O)C[C@@H](C)C(=O)[C@H](C)[C@@H](O)[C@]1(C)O [Erythromycin (1), erythromycin A] | MIC [21]: 1 µg/mL (≈ 1.36 µM); MIC [22]: 4 µg/mL (≈ 5.45 µM); MIC [23]: 4 µg/mL (≈ 5.45 µM); MIC [24]: 4 µg/mL (≈ 5.45 µM); MIC [25]: 4 µg/mL (≈ 5.45 µM); MIC [26]: 4 µg/mL (≈ 5.45 µM); MIC [27]: 4 µg/mL (≈ 5.45 µM); MIC [28]: 0.5 µg/mL (≈ 0.681 µM); minimum inhibitory concentration (MIC) [29]: >16 µg/mL; MIC [30]: > 16 µg/mL
≤ 0.12 | ≤ 0.12 | 0.25 (≈ 0.308 µM) | ≤ 0.12 | ≤ 0.12 | > 64 | ≤ 0.12 | 2 (≈ 2.46 µM) | 4 (≈ 4.93 µM) | 2 (≈ 2.46 µM) | 4 (≈ 4.93 µM) | 2 (≈ 2.46 µM) | 4 (≈ 4.93 µM) | 4 (≈ 4.93 µM) | 4 (≈ 4.93 µM) | 2 (≈ 2.46 µM) | 4 (≈ 4.93 µM) | 2 (≈ 2.46 µM) | 1 (≈ 1.23 µM) | 2 (≈ 2.46 µM) | CC[C@H]1OC(=O)[C@H](C)C(=O)[C@H](C)[C@@H](O[C@@H]2O[C@H](C)C[C@H](N(C)C)[C@H]2O)[C@](C)(OC)C[C@@H](C)C(=O)[C@H](C)[C@H]2N(CCCCn3cnc(-c4cccnc4)c3)C(=O)O[C@]12C [Telithromycin (4), telithromycin] | MIC [21]: 2 µg/mL (≈ 2.46 µM); MIC [22]: 4 µg/mL (≈ 4.93 µM); MIC [23]: 4 µg/mL (≈ 4.93 µM); MIC [24]: 4 µg/mL (≈ 4.93 µM); MIC [25]: 4 µg/mL (≈ 4.93 µM); MIC [26]: 2 µg/mL (≈ 2.46 µM); MIC [27]: 4 µg/mL (≈ 4.93 µM); MIC [28]: 0.25 µg/mL (≈ 0.308 µM); minimum inhibitory concentration (MIC) [29]: >16 µg/mL; MIC [30]: 16 µg/mL (≈ 19.7 µM)
